Read-outs that look alike come from different tables or passages of the source. Blank lines part the entries; values can stand above or below the molecule they belong to.
Experiments:
[1] = target: T1, Human UII receptor, 6D9 human rhabdomyosarcoma cells (Homo sapiens, UniProt Q9UKP6); test: Human UII Calcium Mobilization Assay; type: cell-based; conditions: average value, FLIPR TETRA, read-out: Human UII Ca^+ Mobilization Average IC50
T1 construct: 6D9: isolated by dilution subcloning of RMS13 cells, ATCC® Number: CRL-2061; host or cells: 6D9 human rhabdomyosarcoma cells (subclone of RMS13)
T1 sequence (Q9UKP6 1-389): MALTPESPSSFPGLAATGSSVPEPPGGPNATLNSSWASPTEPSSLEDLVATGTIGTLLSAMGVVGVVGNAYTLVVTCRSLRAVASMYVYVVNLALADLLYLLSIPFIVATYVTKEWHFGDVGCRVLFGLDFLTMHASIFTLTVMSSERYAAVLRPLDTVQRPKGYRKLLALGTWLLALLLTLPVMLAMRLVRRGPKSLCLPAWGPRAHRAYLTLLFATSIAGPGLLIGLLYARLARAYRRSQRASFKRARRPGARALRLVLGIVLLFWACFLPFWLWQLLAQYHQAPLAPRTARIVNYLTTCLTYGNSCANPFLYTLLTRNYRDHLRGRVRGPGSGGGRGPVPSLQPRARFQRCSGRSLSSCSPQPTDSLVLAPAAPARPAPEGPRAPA
Method in brief: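 6D9 rhabdomyosarcoma cells loaded 45 min at 37° C with calcium dye (1.25 mM probenecid, 0.01% FBS, HBSS/20 mM HEPES). Antagonist and U-II agonist added at room temperature; FLIPR fluorescence read over 4 min; EC50/IC50 fitted. DMSO ≤0.1% final.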

[2] = target: T2, endogenous human UII receptor (Homo sapiens, UniProt Q9UKP6); test: Human Radioligand Binding Assay ((^125I)-U-II binding to human skeletal muscle myoblasts)
T2 sequence (Q9UKP6 1-389): T1 sequence (Q9UKP6 1-389)

[3] = target: T3, rat GPR14 (U-II receptor) (Rattus norvegicus, UniProt P49684); test: Rat UII Calcium Mobilization FLIPR Assay; type: cell-based; conditions: average value for the compound tested; read-out: Rat UII FLIPR Average IC50
T3 construct: expressed in transfected cells
T3 sequence (P49684 1-386): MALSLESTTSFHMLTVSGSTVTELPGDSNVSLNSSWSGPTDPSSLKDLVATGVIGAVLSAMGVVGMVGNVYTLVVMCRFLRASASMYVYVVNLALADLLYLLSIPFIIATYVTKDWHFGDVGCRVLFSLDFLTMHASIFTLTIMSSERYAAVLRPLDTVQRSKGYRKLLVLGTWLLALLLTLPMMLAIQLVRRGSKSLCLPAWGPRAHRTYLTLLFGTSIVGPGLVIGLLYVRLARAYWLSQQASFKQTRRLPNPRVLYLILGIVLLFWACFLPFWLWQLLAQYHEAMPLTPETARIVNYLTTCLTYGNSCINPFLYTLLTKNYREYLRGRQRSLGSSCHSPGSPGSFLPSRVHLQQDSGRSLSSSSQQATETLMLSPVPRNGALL
Method in brief: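 CHO cells stably expressing rat U-II receptor, seeded 24 h before assay, were loaded with FLIPR calcium dye in HBSS/20 mM HEPES/0.1% BSA/2.5 mM probenecid, pH 7.4, for 1 h at 37° C. Calcium mobilization then read by FLIPR at 23° C.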

[4] = read-out: Human UII Average Binding Ki, average value, (^125I)-U-II binding to human skeletal muscle myoblasts (HSMM), 25° C., 3 h

SMILES: CCN1CCN(c2cccc3c2C(=O)N([C@H](CCCNS(=O)(=O)c2cccs2)c2ccc(OC)c(OC)c2)C3=O)CC1 [Cpd 168, (R)-thiophene-2-sulfonic acid {4-(3,4-dimethoxy-phenyl)-4-[4-(4-ethyl-piperazin-1-yl)-1,3-dioxo-1,3-dihydro-isoindol-2-yl]-butyl}-amide]
- IC50 [1]: 150 nM
- Ki [2, 4]: 35 nM
- IC50 [3]: 4.8 nM

SMILES: COc1ccc([C@@H](CCCNS(=O)(=O)c2cccs2)N2C(=O)c3cccc(N4CCN(C)CC4)c3C2=O)cc1OC [Cpd 169, (R)-thiophene-2-sulfonic acid {4-(3,4-dimethoxy-phenyl)-4-[4-(4-methyl-piperazin-1-yl)-1,3-dioxo-1,3-dihydro-isoindol-2-yl]-butyl}-amide]
- IC50 [1]: 220 nM
- Ki [2, 4]: 59 nM
- IC50 [3]: 16 nM

SMILES: COc1ccc([C@@H](CCCNC(=O)C(C)C)N2C(=O)c3cccc(N4CCN([C@H](C)c5ccccc5)CC4)c3C2=O)cc1OC [Cpd 174, (R)-N-(4-(3,4-dimethoxy-phenyl)-4-{1,3-dioxo-4-[4-(1R)-(1-phenyl-ethyl)-piperazin-1-yl]-1,3-dihydro-isoindol-2-yl}-butyl)-isobutyramide]
- IC50 [1]: 620 nM
- Ki [2]: 19 nM
- IC50 [3]: 11 nM

SMILES: CCCC(=O)NCCC[C@H](c1ccc(OC)c(OC)c1)N1C(=O)c2cccc(N3CCN([C@H](C)c4ccccc4)CC3)c2C1=O [Cpd 176, (R)-N-(4-(3,4-dimethoxy-phenyl)-4-{1,3-dioxo-4-[4-(1R)-(1-phenyl-ethyl)-piperazin-1-yl]-1,3-dihydro-isoindol-2-yl}-butyl)-butyramide]
- IC50 [1]: 850 nM
- Ki [2]: 24 nM
- IC50 [3]: 13 nM

Next, values leading:

- IC50 [1]: 410 nM
- Ki [2]: 31 nM
- IC50 [3]: 8.4 nM
SMILES: COc1ccc([C@@H](CCCNS(=O)(=O)c2cccs2)N2C(=O)c3cccc(N4CCN(Cc5ccoc5)CC4)c3C2=O)cc1OC [Cpd 170, (R)-thiophene-2-sulfonic acid {4-(3,4-dimethoxy-phenyl)-4-[4-(4-furan-3-ylmethyl-piperazin-1-yl)-1,3-dioxo-1,3-dihydro-isoindol-2-yl]-butyl}-amide]

- IC50 [1]: 1000 nM
- Ki [2]: 370 nM
- IC50 [3]: 11 nM
SMILES: COc1ccc([C@@H](CCCNS(=O)(=O)c2cccs2)N2C(=O)c3cccc(N4CCN(Cc5cccnc5)CC4)c3C2=O)cc1OC [Cpd 171, (R)-thiophene-2-sulfonic acid {4-(3,4-dimethoxy-phenyl)-4-[1,3-dioxo-4-(4-pyridin-3-ylmethyl-piperazin-1-yl)-1,3-dihydro-isoindol-2-yl]-butyl}-amide]

- IC50 [1]: 220 nM
- Ki [2]: 26 nM
- IC50 [3]: 11 nM
SMILES: COc1ccc([C@@H](CCCNS(=O)(=O)c2cccs2)N2C(=O)c3cccc(N4CCN(Cc5ccsc5)CC4)c3C2=O)cc1OC [Cpd 172, (R)-thiophene-2-sulfonic acid {4-(3,4-dimethoxy-phenyl)-4-[1,3-dioxo-4-(4-thiophen-3-ylmethyl-piperazin-1-yl)-1,3-dihydro-isoindol-2-yl]-butyl}-amide]

- IC50 [1]: 800 nM
- Ki [2]: 66 nM
- IC50 [3]: 11 nM
SMILES: COc1ccc([C@@H](CCCNC(=O)C2CCOC2)N2C(=O)c3cccc(N4CCN([C@H](C)c5ccccc5)CC4)c3C2=O)cc1OC (stereo partly drawn) [Cpd 173, (R)-tetrahydro-furan-3-carboxylic acid (4-(3,4-dimethoxy-phenyl)-4-{1,3-dioxo-4-[4-(1R)-(1-phenyl-ethyl)-piperazin-1-yl]-1,3-dihydro-isoindol-2-yl}-butyl)-amide]

- IC50 [1]: 410 nM
- Ki [2]: 26 nM
- IC50 [3]: 6.1 nM
SMILES: COCC(=O)NCCC[C@H](c1ccc(OC)c(OC)c1)N1C(=O)c2cccc(N3CCN([C@H](C)c4ccccc4)CC3)c2C1=O [Cpd 175, (R)-N-(4-(3,4-dimethoxy-phenyl)-4-{1,3-dioxo-4-[4-(1R)-(1-phenyl-ethyl)-piperazin-1-yl]-1,3-dihydro-isoindol-2-yl}-butyl)-2-methoxy-acetamide]

— patent US8193191B2, “Urotensin II receptor antagonists” (Janssen Pharmaceutica N.V., priority 2006, dated 2012)
